Test results published in US6156724A, “Uses of didemnins as immunomodulating agents” (priority 1998, dated 2000).
Like-named read-outs stand apart in the source and are kept apart here. Numbered stars: 1 amine (or outer) side, 2 acyl side, 3 side chain; on linkers, the order of the positions; unused ones are H or OH. Bridge positions count the residues as written; N and C are the ends. Square brackets hold non-standard residues; d marks the D form. Peptide text beside a SMILES is read from it. X1 = CC[C@H](C)[C@@H](N[*:1])[C@@H](O)CC(=O)O[C@H](C(=O)[C@H](C)C(=O)[*:2])C(C)C; NMeY = CN[C@@H](Cc1ccc(O)cc1)C(=O)O; dNMeL = CN[C@H](CC(C)C)C(=O)O; pGlu = O=C1CC[C@@H](C(=O)O)N1; Lac = C[C@H](O)C(=O)O

Key:
Rift Valley fever virus = conditions: mouse, in vivo; cited from earlier work
[1] = test system: CB6F1 mice grafted with Balb/c splenocytes; assay: Graft vs host reaction (GVHR) splenomegaly assay; type: in vivo; conditions: for alive day 8 / body weight change day 5 / body weight day 5 (g ± SD) / index (spleen wt. treated/spleen wt. syngenetic injection) / mean group spleen wt. normalized to day 8 body weight: QD 1-7, ip
Description: Three representative compounds didemnin M (38), O-pGlu-DB (37), and didemnin B (1)-showing high (37,38) or moderate (1) in vivo immunosuppressive activity were subsequently evaluated in a multidose assay (0.16,0.016, and 0.0016 mg/kg per injection; qd 1-7) for their in vivo immunosuppressive effects on the GVHR splenomegaly assay.
Three didemnins (didemnin B, didemnin M, and pGlu-didemnin B) were evaluated in a modified Simonsen splenomegaly assay. Briefly, an F1 hybrid host animal is grated with immunocompetent spleen cells from the parent strain. The index used to measure the success of the GVHR is splenomegaly (increased spleen weight due to cellular proliferation of grafted lymphocytes). An index>1.3 (graft index) is considered to be a successful graft rejection of the recipient animal. Immunosuppression is considered as a reduction of the graft index.
On day O, CB6F1 female mice, 4 weeks of age, were grated by intraperitoneal (ip) injection of 50×10^5 splenocytes from BALB/c female mice in high-glucose ([…]) Dulbecco's modified Eagles medium. A syngeneic control group (CB6F1 --CB6F1) was similarly prepared and served as the negative control. Grafted mice were divided into treatment groups containing six mice each. Groups were injected ip with test compound (dissolved in vehicle; 1% abs. EtOH in sterile phosphate-buffered saline) at one of three dose levels (0.16, 0.016, and 0.0016 mg/kg per injection) in a multidose assay, cyclophosphamide (200 mg/kg per injection) or vehicle on days 1-7 (qd 1-7). On day 8 all groups were sacrificed, spleens were excised, and a graft index was calculated for each group by the following formula: [formula]

[2] = test system: concanavalin A-induced lymphoblasts (Con A splenocytes); assay: Lymphoblast viability (LbV) assay; conditions: Con A-stimulated splenocytes (lymphoblasts), MTT
[3] = test system: murine splenocytes (Balb/c and C57B1/6); assay: Two-way mixed lymphocyte reaction (MLR) assay;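 also: proliferation read as tritiated thymidine incorporation into newly made DNA after an overnight pulse, expressed as percent of control activity, IC50 interpolated per compound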
[4] = test system: Balb/c splenocytes (resting lymphocytes); assay: Lymphocyte viability (LcV) assay; type: cell-based, murine; conditions: unstimulated Balb/c splenocytes, MTT
In short: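 Resting Balb/c splenocytes incubated with compounds under MLR-equivalent conditions, then pulsed overnight with MTT; formazan dissolved in isopropanol and absorbance read at 570 nm. Viability expressed as percent of untreated Balb/c control metabolic activity, with LC50 interpolated.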

[5] = 160 μg/kg per injection (highest dose)
[6] = Balb/c + C57B1/6 splenocytes, 96 h, [3H]thymidine
[7] = read-out: two-way mixed lymphocyte reaction (MLR) suppression MLR, IC50, Balb/c + C57B1/6 splenocytes, 96 h, [3H]thymidine

With `CC[C@H](C)[C@H]1NC(=O)[C@@H](NC(=O)[C@@H](CC(C)C)N(C)C(=O)[C@@H]2CCCN2C(=O)C(C)O)[C@@H](C)OC(=O)[C@H](Cc2ccc(OC)cc2)N(C)C(=O)[C@@H]2CCCN2C(=O)[C@H](CC(C)C)NC(=O)[C@@H](C)C(=O)[C@H](C(C)C)OC(=O)C[C@@H]1O` (stereo partly drawn) [Compound 1, didemnin B] as the compound, how does the “protected Rift Valley fever virus-infected mice” value (Rift Valley fever virus) read?
Its value is 90%.

What about the “suppression of allogeneically induced splenomegaly response compared to control” value ([1]; 1.6 μg/kg per injection) of the same compound?
Its value is “not effective”.

What about the “alive day 8” value ([1]; 0.0016 mg/Kg/day) of the same compound?
Its value is 100%.

And the “body weight change day 5” value ([1]; 0.0016 mg/Kg/day)?
The value was 1.0 g.

And the “body weight day 5 (g ± SD)” value ([1]; 0.0016 mg/Kg/day)?
Its value is 18.4 ± 0.8 g.

And the “index (spleen wt. treated/spleen wt. syngenetic injection)” value ([1]; 0.0016 mg/Kg/day)?
Its value is 1.91.

What about the “mean group spleen wt. normalized to day 8 body weight” value (“mean group spleen wt. normalized” below) ([1]; 0.0016 mg/Kg/day) of the same compound?
The value was 6.1.

And the “alive day 8” value ([1]; 0.016 mg/Kg/day)?
Its value is 100%.

And the “body weight change day 5” value ([1]; 0.016 mg/Kg/day)?
Its value is 1.0 g.

What about the “body weight day 5 (g ± SD)” value ([1]; 0.016 mg/Kg/day) of the same compound?
The value was 18.2 ± 0.7 g.

And the “index (spleen wt. treated/spleen wt. syngenetic injection)” value ([1]; 0.016 mg/Kg/day)?
The value was 1.33.

What about the “mean group spleen wt. normalized” value ([1]; 0.016 mg/Kg/day) of the same compound?
Its value is 4.2.

What about the “suppression of allogeneically induced splenomegaly response compared to control” value ([1]; 16 μg/kg per injection) of the same compound?
Its value is 53%.

And the “suppression of allogeneically induced splenomegaly response compared to control” value ([1]; 160 μg/kg per injection)?
The value was 66%.

And the “toxicity to the animals” value [1, 5]?
Its value is “neither was toxic”.

What about the “alive day 8” value ([1]; 0.16 mg/Kg/day) of the same compound?
Its value is 100%.

What about the “body weight change day 5” value ([1]; 0.16 mg/Kg/day) of the same compound?
Its value is -1.4 g.

And the “body weight day 5 (g ± SD)” value ([1]; 0.16 mg/Kg/day)?
Its value is 15.6 ± 1.6 g.

And the “index (spleen wt. treated/spleen wt. syngenetic injection)” value ([1]; 0.16 mg/Kg/day)?
Its value is 1.24.

And the “mean group spleen wt. normalized” value ([1]; 0.16 mg/Kg/day)?
The value was 4.0.

And the “cytotoxicity to lymphocytes LbV, LC50” value [2]?
The value was 0.6 nM.

What about the “two-way mixed lymphocyte reaction (MLR) suppression MLR, IC50” value [3, 6] of the same compound?
The value was 0.46 ng/mL.

What about the IC50 [3, 7] of the same compound?
Its IC50 is 0.42 nM.

What about the “cytoxicity to lymphocytes LcV, LC50” value [4] of the same compound?
Its value is 6340 nM.

And the “cytoxicity to lymphocytes LcV, LC50” value ([4]; highest concentration 10 μg/mL)?
Its value is 7.00 µg/mL.

What does the source list for `CC[C@H](C)[C@H]1NC(=O)[C@@H](NC(=O)[C@@H](CC(C)C)N(C)C(=O)[C@@H]2CCCN2C(=O)[C@H](C)OC(=O)[C@H](CCC(N)=O)NC(=O)[C@@H]2CCC(=O)N2)[C@@H](C)OC(=O)[C@H](Cc2ccc(OC)cc2)N(C)C(=O)[C@@H]2CCCN2C(=O)[C@H](CC(C)C)NC(=O)[C@@H](C)C(=O)[C@H](C(C)C)OC(=O)C[C@@H]1O` [Compound 38, Didemnin M] ([pGlu]Q[Lac]P[dNMeL]T[X1]LP[NMeY](Me); ester 6-C)?
suppression of allogeneically induced splenomegaly response compared to control ([1]; 1.6 μg/kg per injection): 61%; alive day 8 ([1]; 0.0016 mg/Kg/day): 100%; body weight change day 5 ([1]; 0.0016 mg/Kg/day): 1.4 g; body weight day 5 (g ± SD) ([1]; 0.0016 mg/Kg/day): 17.2 ± 1.2 g; index (spleen wt. treated/spleen wt. syngenetic injection) ([1]; 0.0016 mg/Kg/day): 1.27; mean group spleen wt. normalized to day 8 body weight ([1]; 0.0016 mg/Kg/day): 4.1; alive day 8 ([1]; 0.016 mg/Kg/day): 100%; body weight change day 5 ([1]; 0.016 mg/Kg/day): -0.2 g; body weight day 5 (g ± SD) ([1]; 0.016 mg/Kg/day): 17.8 ± 0.7 g; index (spleen wt. treated/spleen wt. syngenetic injection) ([1]; 0.016 mg/Kg/day): 1.38; mean group spleen wt. normalized to day 8 body weight ([1]; 0.016 mg/Kg/day): 4.4; alive day 8 ([1]; 0.16 mg/Kg/day): 100%; body weight change day 5 ([1]; 0.16 mg/Kg/day): 1.0 g; body weight day 5 (g ± SD) ([1]; 0.16 mg/Kg/day): 16.4 ± 1.0 g; index (spleen wt. treated/spleen wt. syngenetic injection) ([1]; 0.16 mg/Kg/day): 1.54; mean group spleen wt. normalized to day 8 body weight ([1]; 0.16 mg/Kg/day): 4.9; toxicity to the animals ([1]; 16 and 160 μg/kg): not toxic; cytotoxicity to lymphocytes LbV, LC50 [2]: 0.25 nM; two-way mixed lymphocyte reaction (MLR) suppression MLR, IC50 [3, 6]: 0.001 ng/mL; cytoxicity to lymphocytes LcV, LC50 [4]: > 7410 nM; cytoxicity to lymphocytes LcV, LC50 ([4]; highest concentration 10 μg/mL): > 10 µg/mL

With `CC[C@H](C)[C@H]1NC(=O)[C@@H](NC(=O)[C@@H](CC(C)C)N(C)C(=O)[C@@H]2CCCN2C(=O)[C@H](C)OC(=O)[C@@H]2CCC(=O)N2)[C@@H](C)OC(=O)[C@H](Cc2ccc(OC)cc2)N(C)C(=O)[C@@H]2CCCN2C(=O)[C@H](CC(C)C)NC(=O)[C@@H](C)C(=O)[C@H](C(C)C)OC(=O)C[C@@H]1O` [Compound 37, O-Pyroglutamyldidemnin B] ([pGlu][Lac]P[dNMeL]T[X1]LP[NMeY](Me); ester 5-C) as the compound, how does the “alive day 8” value ([1]; 0.0016 mg/Kg/day) read?
Its value is 100%.

What about the “body weight change day 5” value ([1]; 0.0016 mg/Kg/day) of the same compound?
Its value is 0.4 g.

And the “body weight day 5 (g ± SD)” value ([1]; 0.0016 mg/Kg/day)?
The value was 17.4 ± 1.7 g.

And the “index (spleen wt. treated/spleen wt. syngenetic injection)” value ([1]; 0.0016 mg/Kg/day)?
The value was 1.63.

And the “mean group spleen wt. normalized” value ([1]; 0.0016 mg/Kg/day)?
Its value is 5.2.

What about the “alive day 8” value ([1]; 0.016 mg/Kg/day) of the same compound?
Its value is 100%.

And the “body weight change day 5” value ([1]; 0.016 mg/Kg/day)?
The value was 0.8 g.

What about the “body weight day 5 (g ± SD)” value ([1]; 0.016 mg/Kg/day) of the same compound?
The value was 17.2 ± 1.5 g.

And the “index (spleen wt. treated/spleen wt. syngenetic injection)” value ([1]; 0.016 mg/Kg/day)?
The value was 1.76.

What about the “mean group spleen wt. normalized” value ([1]; 0.016 mg/Kg/day) of the same compound?
The value was 5.6.

What about the “suppression of allogeneically induced splenomegaly response compared to control” value ([1]; 160 μg/kg per injection) of the same compound?
Its value is 54%.

What about the “toxicity to the animals” value [1, 5] of the same compound?
The value was “neither was toxic”.

And the “alive day 8” value ([1]; 0.16 mg/Kg/day)?
The value was 100%.

What about the “body weight change day 5” value ([1]; 0.16 mg/Kg/day) of the same compound?
Its value is -0.6 g.

And the “body weight day 5 (g ± SD)” value ([1]; 0.16 mg/Kg/day)?
The value was 15.2 ± 1.2 g.

What about the “index (spleen wt. treated/spleen wt. syngenetic injection)” value ([1]; 0.16 mg/Kg/day) of the same compound?
The value was 1.32.

What about the “mean group spleen wt. normalized” value ([1]; 0.16 mg/Kg/day) of the same compound?
Its value is 4.2.

What about the “cytotoxicity to lymphocytes LbV, LC50” value [2] of the same compound?
The value was 0.079 nM.

What about the “two-way mixed lymphocyte reaction (MLR) suppression MLR, IC50” value [3, 6] of the same compound?
The value was 0.007 ng/mL.

What about the IC50 ([3]; read-out: MLR IC50) of the same compound?
Its IC50 is 0.0053 nM.

What about the IC50 [3, 7] of the same compound?
The IC50 was 0.0053 nM.

What about the “cytoxicity to lymphocytes LcV, LC50” value [4] of the same compound?
The value was greater than 8200 nM.

What about the “cytoxicity to lymphocytes LcV, LC50” value ([4]; highest concentration 10 μg/mL) of the same compound?
Its value is greater than 10 µg/mL.
